Patent US20220411448A1, “CHROMENE-4-ONE DERIVATIVES AS BRAIN-DERIVED NEUROTROPHIC FACTOR (BDNF) MIMETICS” (FLORATEK PHARMA AG, priority 2019, published 2022)

Experiments:
[1] = test system: Cox (cytochrome oxidase); test: Quantitative PCR of mitochondrial gene Cox; format: cell-based, mouse; conditions: 1 μM and 10 μM, 1 h and 2 h treatment
Procedure: The effect of Compound A or derivative thereof on the mRNA expression of genes related to plasticity (Arc, cFos, and Zif268) was determined as described. Cox (cytochrome oxidase) was used to evaluate if the derivative changes expression of mitochondrial genes.
Determination of gene expression was performed as previously described [Yang J, et al, Lactate promotes plasticity gene expression by potentiating NMDA signalling in neurons. Proc Natl Acad Sci USA. 2014. 111(33):12228-33]. Total RNA was isolated from cultured cells using Nucleospin RNA II kit (Macherey-Nagel) according to the manufacturer's instructions. The first strand of cDNA was synthesized from 100 ng of total RNA (60 min at 37° C. followed by 5 min at 95° C.) using a high-capacity RNA to cDNA reverse transcription system (Applied Biosystems). One-twentieth of the resulting cDNA was amplified by quantitative PCR (qPCR) with an ABI Prism 7900 system (Applied Biosystems). The PCR mix was composed of 6 ng of cDNA, 300 nM of forward and reverse primers in 10 μL of ix SYBR-Green PCR MasterMix (Applied Biosystems). Primer sequences were designed using Primer Express 3.0 software (Applied Biosystems) and oligonucleotides were synthesized by Microsynth.

[2] = Metabolic stability in mouse liver microsomes; format: in vitro ADME; conditions: male, CD1, mouse, pooled liver microsomes, pH 7.4, 0.5 mg/ml protein, read-out: T1/2 LM mouse
Procedure: (§1) Sample type: pooled liver or intestine microsomes; Species: CD1-mouse (male), human (mixed gender) Time points: 0, 10, 20, 40, 60 min cofactors, and negative control;
(§2) Protein content: 0.5 mg/ml: Replicates: 2 with cofactors, 1 without cofactors; Cofactors: NADPH (1 mM)+UDPGA (1 mM)+15 μg/ml alamethicin Buffer: 0.1 M phosphate buffer pH 7.4, 2 mM MgCl2; Spiking solvent: 50% DMSO ( 1/100 to incubation); Quenching solvent: 2-fold volume of 75% ACN, Control: midazolam disappearance rate
(§3) The study compounds were incubated with liver or intestine microsomes as specified above. The collected samples were stored at −20 C until thawed at room temperature, centrifuged and analyzed as presented below.
(§4) The samples were analysed by UPLC/HR-MS (with data dependent MS/MS mode) to monitor substrate depletion (and later optionally metabolite formation). The analytical method was optimised by using the parent compound for optimum chromatographic properties (peak shape and retention) and mass spectrometric ionisation. Disappearance rate of the study compound was estimated based on relative LC/MS peak areas (o min marked as 100%), and was used to calculate in vitro half-life and clearance (and in vivo extrapolation of hepatic clearance).

[3] = test system: astrocytes cultures; test: ROS formation (H2DCF-DA kit); format: cell-based, mouse; conditions: various concentrations, 2 h
Procedure: ROS formation has been determined as described [Yang J et al, Lactate promotes plasticity gene expression by potentiating NMDA signalling in neurons. Proc Natl Acad Sci USA. 2014. 111(33):12228-33] using a H2DCF-DA kit (ThermoFisher) as recommended by the manufacturer. Briefly, astrocytes cultures were washed twice with HBSS and incubated for 60 min in 50 μM in HBSS at 37° C. and 5% CO2 in the presence of the dye. After two washing steps with prewarmed HBSS the cells were treated with increasing concentrations of 100 μL Compound A at 37° C. and 5% CO2. Fluorescence intensity was measured after 2 h from the same plate using a fluorescence microplate reader (Safire 2; Tecan) at an excitation wavelength of 485 nm and an emission wavelength of 528 nm.
To assess the effect of Compound A on ROS accumulation in primary neuron cultures, the cells were treated with various concentration of Compound A for 2 hours and ROS was measured as described (FIG. 4).

[4] = Metabolic stability in human intestine microsomes; format: in vitro ADME; conditions: both sexes, pooled intestine microsomes, pH 7.4, intestinal microsomes, 0.5 mg/ml protein, read-out: T1/2 IM human
Procedure: as §1, §2, §3, §4

[5] = test system: Astrocytes; test: Cellular ATP/ADP ratio (luciferase, CellTiter-Glo); format: cell-based, mouse
Procedure: ATP content was measured enzymatically as previously described [Lambert H P et al, Control of Mitochondrial pH by Uncoupling Protein 4 in Astrocytes Promotes Neuronal Survival, 2014 The Journal of Biological Chemistry 289, 31014-31028] using a luciferase assay, the CellTiter-Glo Luminescent cell viability assay (Promega). Astrocytes grown on multiplate of 48 wells were rinsed and incubated 1 h at 37° C. in an atmosphere containing 5% CO2 and 95% air in DMEM (D5030; Sigma-Aldrich) containing 44 mm NaHCO3 and 2 mm glucose. At the end of the incubation, medium was removed, and 200 μl of Tricine buffer solution (40 mm Tricine, 3 mm EDTA, 85 mm NaCl, 3.6 mm KCl, 100 mm NaF, and 0.1% saponin (84510; Sigma-Aldrich), pH 7.4) was put in each well. Cells were lysed by saponin effect and by pipetting. Each sample was divided for ATP measure and for ATP+ADP measure. 90-μl aliquots were distributed in a black-walled 96-well type microplates (PerkinElmer Life Sciences). […] Finally, 100 μl of CellTiter-Glo reagent (G7571; Promega) was added, and luminescence was immediately detected with a luminometer (Safire 2; Tecan). Luminescence was measured in a kinetic way determined by 20 readings at intervals of 1 min. Luminescence read at the plateau were taken to calculate the ATP/ADP ratio. […]

[6] = Metabolic stability in human liver microsomes; format: in vitro ADME; conditions: both sexes, pooled liver microsomes, pH 7.4, 0.5 mg/ml protein, read-out: T1/2 LM human
Procedure: as §1, §2, §3, §4

- mRNA expression of Cox (cytochrome oxidase) [1]: unaffected
- half-life at 1 μM [2]: 23 min
- half-life at 1 μM [4]: 30.8 min
- production of ATP ([5]; 100 nM, 30 min): increased production of ATP
- ATP/ADP ratio ([5]; various doses): trended higher at most doses
- half-life at 1 μM [6]: 18 min
Structure (SMILES): O=c1cc(-c2ccc(CCCC[P+](c3ccccc3)(c3ccccc3)c3ccccc3)cc2)oc2c(O)c(O)ccc12 [SND118, 4-[4-(7,8-dihydroxy-4-oxo-chromen-2-yl)phenyl]butyltriphenylphosphonium bromide]
- ROS accumulation [3]: decrease in ROS accumulation
